Read-outs that look alike come from different tables or passages of the source.
Legend:
[1] = biological target: T1, full length rTrkA and mNGF (Rattus norvegicus, UniProt P35739); assay: Inhibition of proliferation of Ba/F3 cells co-expressing full length rTrkA and mNGF (BaF3/TrkA-NFG); format: cell-based; settings: BaF3 TRKA-NGF cells, CTG readout
T1 construct: co-expressing full length rTrkA and mNGF; expressed in transfected cells; host or cells: Ba/F3 cells

[2] = biological target: T2, Tel-TrkB (Homo sapiens, UniProt Q16620); assay: Inhibition of proliferation of Ba/F3 cells expressing Tel-TrkB (BaF3/Tel-TrkB); format: cell-based; settings: Ba/F3 Tel-TrkB cells; read-out: Ba/F3 Tel-TrkB IC 50
T2 construct: dimerization domain of Tel (ETV6) transcription factor (fusion partner, human ETV6 P41212); expressed in transfected cells; host or cells: luciferase expressing Ba/F3 murine hematopoietic progenitor cells; the other entry of the earlier key: ETV6 (P41212, Transcription factor ETV6)
Method: (§1) Test compounds were dissolved in DMSO (10 mM) and transferred into 1.4 mL flat bottom or V-shaped Matrix tubes carrying a unique 2D matrix chip by individual compound hubs. The numbers of these chips were distinctively linked to the individual compound identification numbers. The stock solutions were stored at −20° C. if not used immediately. For the test procedure the vials were defrosted and identified by a scanner whereby a working sheet is generated that guides the subsequent working steps.
(§2) Compound dilutions were made in 384 well plates. This format enabled the assay of maximally 28 individual test compounds at 12 concentrations (single points) including 2 reference compounds. The dilution protocol included the production of pre-dilution plates, master plates and assay plates: • Compound plates: 30 μL of individual compound (10 mM) DMSO solution including standard compound were transferred into columns 1 and 13 of a 384 well plate. 20 μL of DMSO were added to the rest of the wells and the compounds were serially diluted (1:3) by transferring 10 μL from a well in column 1 or 13 to the next well in column 2 or 14 respectively and successively with the help of a Minitrack robot. • Assay plates: Identical assay plates were then prepared by adding […] each of compound dilutions of the compound plates into 384-well “assay plates”. In the following the compounds were mixed with 50 μL of assays components (cells or enzyme) and tested for their inhibitory activity.
(§3) Compounds of Formula (I) were tested for their antiproliferative effect on Ba/F3 cells expressing either Tel-TrkA, Tel-TrkB or Tel-TrkC and an additional panel of 34 selected diverse kinases activated by fusion to the dimerizing partners Bcr or Tel (Abl, A1K, BMX, EphA3, EphB2, FGFR2, FGFR3, FGFR4, FGR, FLT1, FLT3, FLT4, FMS, IGF1R, InsR, JAK1, JAK2, JAK3, KDR, Kit, Lck, Lyn, MER, MET, PDGFRb, RET, RON, Ros-1, Src, Aurora, TIE2, TYK2, Tie1, ZAP70). The antiproliferative effect of these compounds on the different cell lines and on the non transformed cells were tested at 12 different concentrations of 3-fold serially diluted compounds in 384 well plates as described above (in media lacking IL3). The IC50 values of the compounds the different cell lines were determined from dose response curves.
(§4) The cell line used is the luciferase expressing Ba/F3 murine hematopoietic progenitor cell line transformed with human Tel-TrkA, Tel-TrkB or Tel-TrkC cDNAs (Ba/F3 EN A/B/C). These cells maintained in RPMI/10% fetal bovine serum (RPMI/FCS) supplemented with penicillin 50 mg/mL, streptomycin 50 mg/mL and L-glutamine […]. Untransformed Ba/F3 cells were similarly maintained with the addition 5 ng/ml of murine recombinant IL3. 50 μl of a Ba/F3 or Ba/F3 EN A/B/C cell suspension were plated in Greiner 384 well microplates (white)) at a density of 2000 cells per well. […] The cells were incubated for 48 hours at 37° C., 5% CO2. 25 μl of Bright Glo® (Promega) luciferase substrate is added to each well. The emited luminiscence is quantified using the ACQUEST™ luminescence system (Molecular Devices). IC50 values were calculated by linear regression analysis of the percentage inhibition of each compound at 12 concentrations.

[3] = test system: parental BaF3 cells; assay: Proliferation of parental (untransformed) Ba/F3 cells maintained with IL3; format: cell-based, murine; settings: read-out: Ba/F3 IC 50
Method: as §1, §2
The cell line used is the luciferase expressing Ba/F3 murine hematopoietic progenitor cell line transformed with human Tel-TrkA, Tel-TrkB or Tel-TrkC cDNAs (Ba/F3 EN A/B/C). These cells maintained in RPMI/10% fetal bovine serum (RPMI/FCS) supplemented with penicillin 50 mg/mL, streptomycin 50 mg/mL and L-glutamine […]. Untransformed Ba/F3 cells were similarly maintained with the addition 5 ng/ml of murine recombinant IL3. 50 μl of a Ba/F3 or Ba/F3 EN A/B/C cell suspension were plated in Greiner 384 well microplates (white)) at a density of 2000 cells per well. 50 nl of serially diluted test compound (10-0.0001 mM in DMSO solution) is added to each well. The cells were incubated for 48 hours at 37° C., 5% CO2. 25 μl of Bright Glo® (Promega) luciferase substrate is added to each well. The emited luminiscence is quantified using the ACQUEST™ luminescence system (Molecular Devices). IC50 values were calculated by linear regression analysis of the percentage inhibition of each compound at 12 concentrations.

[4] = biological target: T3, Tel-TrkA (Homo sapiens, UniProt P04629); assay: Inhibition of proliferation of Ba/F3 cells expressing Tel-TrkA (BaF3/Tel-TrkA, luciferase/Bright Glo readout); format: cell-based; settings: read-out: Ba/F3 Tel-TrkA IC 50
T3 construct: dimerization domain of Tel (ETV6) transcription factor (fusion partner, human ETV6 P41212); expressed in transfected cells; host or cells: luciferase expressing Ba/F3 murine hematopoietic progenitor cells; the other entry of the earlier key: ETV6 (P41212, Transcription factor ETV6)
Method: as §1, §2, §3, §4

[5] = Mus musculus, BaF3, parental Ba/F3 cells

T1 sequence (P35739 33-799): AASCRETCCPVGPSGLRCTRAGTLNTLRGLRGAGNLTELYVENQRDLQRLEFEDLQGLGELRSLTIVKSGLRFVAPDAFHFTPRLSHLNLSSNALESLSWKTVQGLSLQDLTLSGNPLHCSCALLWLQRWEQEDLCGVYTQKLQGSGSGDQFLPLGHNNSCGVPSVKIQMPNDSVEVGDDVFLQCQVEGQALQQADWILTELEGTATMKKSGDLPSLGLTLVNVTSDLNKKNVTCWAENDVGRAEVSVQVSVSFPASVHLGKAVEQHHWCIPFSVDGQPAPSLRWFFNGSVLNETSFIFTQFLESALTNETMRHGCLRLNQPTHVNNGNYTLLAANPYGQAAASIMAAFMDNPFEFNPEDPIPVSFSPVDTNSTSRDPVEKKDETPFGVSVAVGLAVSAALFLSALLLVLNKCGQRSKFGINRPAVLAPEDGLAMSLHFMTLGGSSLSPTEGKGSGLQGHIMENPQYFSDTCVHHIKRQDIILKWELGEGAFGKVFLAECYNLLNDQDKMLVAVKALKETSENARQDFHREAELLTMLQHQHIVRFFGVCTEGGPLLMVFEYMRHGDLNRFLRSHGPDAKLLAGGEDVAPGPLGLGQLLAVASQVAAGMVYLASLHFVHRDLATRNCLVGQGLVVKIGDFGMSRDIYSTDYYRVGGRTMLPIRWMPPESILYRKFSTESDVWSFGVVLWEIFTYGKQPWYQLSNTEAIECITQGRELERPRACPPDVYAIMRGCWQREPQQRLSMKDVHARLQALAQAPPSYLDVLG
T1 sequence (P01139 122-241 partner): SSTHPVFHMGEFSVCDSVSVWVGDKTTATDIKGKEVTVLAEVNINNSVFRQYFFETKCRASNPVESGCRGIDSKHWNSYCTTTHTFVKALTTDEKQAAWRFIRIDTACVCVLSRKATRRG
T2 sequence (Q16620 538-822 limits assumed): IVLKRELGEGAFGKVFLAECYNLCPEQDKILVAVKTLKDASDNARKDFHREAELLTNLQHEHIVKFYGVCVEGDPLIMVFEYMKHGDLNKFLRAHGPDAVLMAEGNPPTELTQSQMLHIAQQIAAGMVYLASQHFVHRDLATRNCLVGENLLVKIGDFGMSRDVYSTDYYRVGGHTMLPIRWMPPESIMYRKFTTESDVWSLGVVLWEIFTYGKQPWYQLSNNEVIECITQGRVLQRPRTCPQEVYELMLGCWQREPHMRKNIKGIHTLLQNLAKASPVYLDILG
T3 sequence (P04629 510-796 limits assumed): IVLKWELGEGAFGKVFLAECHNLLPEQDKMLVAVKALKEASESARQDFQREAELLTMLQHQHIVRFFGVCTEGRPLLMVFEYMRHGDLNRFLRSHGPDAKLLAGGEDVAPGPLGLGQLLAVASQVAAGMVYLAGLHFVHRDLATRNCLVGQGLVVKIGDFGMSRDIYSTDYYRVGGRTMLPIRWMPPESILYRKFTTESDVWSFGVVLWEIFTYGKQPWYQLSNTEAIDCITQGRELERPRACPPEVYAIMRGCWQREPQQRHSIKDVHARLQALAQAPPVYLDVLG

Row | BaF3 TRKA-NGF CTG IC 50 [1] | IC50 [2] | IC50 [4] | Compound | IC50 [3, 5] | IC50 ([3]; parental Ba/F3 cells)
1 | 280 nM | 390 nM | 390 nM | Fc1cccc(C2COCCN2c2ccc3ncc(-c4ccc(CN5CCOCC5)cn4)n3n2)c1 (stereo not shown) [Table 2-Compound 20] | > 10000 nM | –
2 | 39 nM | 24 nM | 13 nM | Fc1cccc(C2CCCN2c2ccc3ncc(-c4cccc(-c5ccnc(N6CC7(COC7)C6)n5)n4)n3n2)c1 (stereo not shown) [Table 7-Compound 136] | 4320 nM | –
3 | 5.12 nM | 10 nM | 8.9 nM | OCCN1CCN(c2nccc(-c3cccc(-c4cnc5ccc(N6CCC[C@@H]6c6cccc(F)c6)nn45)n3)n2)CC1 [Table 7-Compound 82] | 397 nM | –
4 | 1200 nM | 1140 nM | 1120 nM | CC1CN(Cc2cccc(-c3cnc4ccc(N5CCCC5c5cccc(F)c5)nn34)n2)CC(C)O1 (stereo not shown) [Table 3-Compound 44] | > 10000 nM | –
5 | 64 nM | 4.8 nM | 47 nM | Fc1cccc(C2CCCN2c2ccc3ncc(-c4cccc(C5OCCO5)n4)n3n2)c1 (stereo not shown) [Table 7-Compound 18] | > 10000 nM | –
6 | 1020 nM | 790 nM | 1020 nM | OC1CCN(Cc2cccc(-c3cnc4ccc(N5CCCC5c5cccc(F)c5)nn34)n2)C1 (stereo not shown) [Table 3-Compound 45] | 8060 nM | –
7 | 121 nM | 67 nM | 90 nM | CC(C)c1noc(C2CCN(c3cccc(-c4cnc5ccc(N6CCOCC6c6cccc(F)c6)nn45)n3)CC2)n1 (stereo not shown) [Table 7-Compound 21] | > 10000 nM | –
8 | 20 nM | 20 nM | 20 nM | OC1CCN(c2nccc(-c3cccc(-c4cnc5ccc(N6CCCC6c6cccc(F)c6)nn45)n3)n2)CC1 (stereo not shown) [Table 7-Compound 57] | 6900 nM | –
9 | 320 nM | 93 nM | 140 nM | COc1ncc(-c2cnc3ccc(N4CCCC4c4cccc(F)c4)nn23)s1 (stereo not shown) [Table 3-Compound 27] | > 10000 nM | –
10 | 140 nM | 120 nM | 100 nM | CC(C)(C)OC(=O)N1CCN(c2cccc(-c3cnc4ccc(N5CCOCC5c5cccc(F)c5)nn34)n2)CC1 (stereo not shown) [Table 2-Compound 16] | > 7670 nM | –
11 | 41 nM | 37 nM | 28 nM | Fc1cccc(C2CCCN2c2ccc3ncc(-c4cccc(-c5cnc(N6CCOCC6)nc5)n4)n3n2)c1 (stereo not shown) [Table 7-Compound 54] | > 10000 nM | –
12 | 238 nM | 129 nM | 224 nM | OCCNc1ncc(-c2cnc3ccc(N4CCCC4c4cccc(F)c4)nn23)cn1 (stereo not shown) [Table 7-Compound 171] | > 11000 nM | –
13 | 370 nM | 540 nM | 1020 nM | O=C(NCCO)c1ccc(-c2cnc3ccc(N4CCCC4c4cccc(F)c4)nn23)cn1 (stereo not shown) [Table 3-Compound 19] | > 10000 nM | –
14 | 14 nM | 8 nM | 7 nM | O=C1CCN(c2cccc(-c3cnc4ccc(N5CCC[C@@H]5c5cccc(F)c5)nn34)n2)CC1 [Table 7-Compound 181] | > 11000 nM | –
15 | 2.6 nM | 1.5 nM | 1.4 nM | CC(C)NC(=O)CN1CCN(c2cccc(-c3cnc4ccc(N5CCCC5c5cccc(F)c5)nn34)n2)CC1 (stereo not shown) [Table 4-Compound 32] | – | 4990 nM
16 | 16 nM | 12 nM | 14 nM | O=C(COCc1ccccc1)N1CCN(c2cccc(-c3cnc4ccc(N5CCC[C@@H]5c5cccc(F)c5)nn34)n2)CC1 [Table 7-Compound 191] | > 9560 nM | –
17 | 3 nM | 2 nM | 1 nM | CC(C)NC(=O)CN1CCN(c2cccc(-c3cnc4ccc(N5CCCC5c5cccc(F)c5)nn34)n2)CC1 (stereo not shown) [Table 7-Compound 96] | 5990 nM | –
18 | 54 nM | 28 nM | 23 nM | CCN(CC)S(=O)(=O)N1CCN(c2cccc(-c3cnc4ccc(N5CCC[C@@H]5c5cccc(F)c5)nn34)n2)CC1 [Table 7-Compound 231] | > 11000 nM | –
19 | 4.88 nM | 3.02 nM | 3.34 nM | OC1CCN(c2cncc(-c3cnc4ccc(N5CCCC5c5cccc(F)c5)nn34)n2)CC1 (stereo not shown) [Table 7-Compound 121] | > 10000 nM | –
20 | 886 nM | 971 nM | 1120 nM | CC(C)(C)OC(=O)N1CCC(Oc2ncc(-c3cnc4ccc(N5CCCC5c5cccc(F)c5)nn34)cn2)CC1 (stereo not shown) [Table 7-Compound 176] | 2750 nM | –
21 | 210 nM | 150 nM | 115 nM | CN(C)c1nccc(-c2cccc(-c3cnc4ccc(N5CCCC5c5cccc(F)c5)nn34)n2)n1 (stereo not shown) [Table 7-Compound 58] | > 10000 nM | –
22 | 12 nM | 24 nM | 10 nM | OCCC1CCN(c2cccc(-c3cnc4ccc(N5CCOCC5c5cccc(F)c5)nn34)n2)CC1 (stereo not shown) [Table 2-Compound 23] | > 10000 nM | –
23 | 110 nM | 210 nM | 200 nM | O=C(Nc1cnc(-c2cnc3ccc(N4CCCC4c4cccc(F)c4)nn23)cn1)C1CC1 (stereo not shown) [Table 3-Compound 41] | 200 nM | –
24 | 16 nM | 14 nM | 14 nM | CN(C)CCNC(=O)C1CCN(c2cccc(-c3cnc4ccc(N5CCCC5c5cccc(F)c5)nn34)n2)CC1 (stereo not shown) [Table 7-Compound 115] | 4840 nM | –
25 | 62 nM | 39 nM | 23 nM | NC(=O)C1CCCN(c2cccc(-c3cnc4ccc(N5CCOCC5c5cccc(F)c5)nn34)n2)C1 (stereo not shown) [Table 7-Compound 6] | > 10000 nM | –
26 | 93 nM | 44 nM | 81 nM | CCOC(=O)C1CCN(c2cccc(-c3cnc4ccc(N5CCOCC5c5cccc(F)c5)nn34)n2)CC1 (stereo not shown) [Table 7-Compound 17] | > 10000 nM | –
27 | – | 790 nM | 1600 nM | Fc1ccc(F)c(C2CCCN2c2ccc3ncn(-c4cccc(-c5ncc[nH]5)c4)c3n2)c1 (stereo not shown) [Table 1-Compound 4] | – | –

Source: US8507488B2, “Fused nitrogen containing heterocycles and compositions thereof as kinase inhibitors” (IRM LLC, priority 2008, dated 2013)
